Source: patent US7718128B2, “Application using non-covalent bond between a cucurbituril derivative and a ligand” (Postech Foundation, priority 2005, dated 2010)

Test system: KB cells (oral carcinoma cells)
Experiment: measurement of degree of cell death by flow cytometry (annexin V-ferrocene derivative / FITC-cucurbituril derivative)
Type: cell-based
Details: 0.5 μM (0.3 μg/mL) doxorubicin, 3 days, versus sample not treated
Protocol: After a ferrocene derivative bound to annexin V, which is known as a protein that can selectively bind to surfaces of dead cells, was treated on cells induced to die using an anti-cancer drug, the cells were treated with an FITC-bound cucurbituril derivative, and the degree of cell death was measured through flow cytometry.
2 mL of […] culture solution (containing 10% FCS) and about 10^6 KB cells (oral carcinoma cells) (obtained from the Korean Cell Line Bank (KCLB)) were cultured in two 6-well cell culture dishes at 37° C. in a 5% CO2 condition for 48 hours.
Next, 2 mL of the RPMT-1640 culture solution (containing 10% FCS) in one of the 6-well cell culture dishes was replaced by the same, fresh culture solution, and 2 mL of the RPMT-1640 culture solution in the other 6-well cell culture dish was replaced by 0.5 μM (0.3 μg/mL) of doxorubicin, and the two culture dishes were incubated at 37° C. in a 5% CO2 condition for 3 days.
The culture solution in the two cell culture dishes incubated in (1) was removed. […]
Next, the degree of cell depth in each of the samples was measured through flow cytometry (FACSCalibur, Becton Dickinson Corp., Ex=488 nm, Em=530 nm (for FITC detection).

`COc1cccc2c1C(=O)c1c(O)c3c(c(O)c1C2=O)C[C@@](O)(C(=O)CO)C[C@@H]3O[C@H]1C[C@H](N)[C@H](O)[C@H](C)O1` [doxorubicin] was tested, and the “degree of cell death (FITC signal, flow cytometry)” value was “most cells in the doxorubicin-treated sample died”.
